The record followed here is publication PMC9482650, “Quantitative fragmentomics allow affinity mapping of interactomes” (Nature Communications, 2022).

As usually defined, the Kd is the constant that tells how readily two partners part at equilibrium. Read a high Kd as lower affinity.

The assay concerns the target SYNJ2BP PDZ (Homo sapiens, UniProt P57105). Description: Holdup assay. Type of assay: binding.

SYNJ2BP PDZ, sequence (P57105 13-100 limits assumed): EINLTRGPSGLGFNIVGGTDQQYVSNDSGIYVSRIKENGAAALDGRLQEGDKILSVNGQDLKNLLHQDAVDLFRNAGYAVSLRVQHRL

On to `CC(C)C[C@H](NC(=O)[C@H](CCC(N)=O)NC(=O)[C@@H](NC(=O)[C@H](CCC(=O)O)NC(=O)[C@H](CCCNC(=N)N)NC(=O)[C@H](CCCNC(=N)N)NC(=O)[C@@H](NC(=O)[C@H](CCCNC(=N)N)NC(=O)[C@H](CO)NC(=O)[C@@H](N)CO)[C@@H](C)O)[C@@H](C)O)C(=O)O` [HPV16E6], for which the Kd is 6.56 µM.
